Key:
[1] = antioxidant activity by DPPH radical scavenging; details: for DPPH radical scavenging activity: at 50 μM; for antioxidant activity (in words): DPPH radical scavenging
Description: (§1) The inhibitory effect on α-glucosidase was measured using α-glucosidase from Saccharomyces cerevisiae (EC 3.2.1.20). A test sample was mixed with 80 μL enzyme buffer and 10 μL α-glucosidase and incubated for 15 min at 37 °C. Then, after the addition of 10 μL p-nitrophenyl α-D-glucopyranoside solution for enzyme reaction, the amount of p-nitrophenol that was cleaved by the enzyme was determined by measuring the absorbance at 405 nm in a 96-well microplate reader. Acarbose was used as a positive control. The antioxidant activity was evaluated by measuring the DPPH radical scavenging activity using ascorbic acid as a positive control.

[2] = system: α-glucosidase from Saccharomyces cerevisiae (EC 3.2.1.20); assay: α-glucosidase inhibitory effect (p-nitrophenyl α-D-glucopyranoside, absorbance 405 nm); assay type: biochemical
Description: as §1

α-glucosidase inhibitory activity (in words) [2]	Molecule	DPPH radical scavenging activity [1]	antioxidant activity (in words) [1]
	CC(C)=CCc1c(O)cc2oc3cc(O)c(O)c(CC=C(C)C)c3c(=O)c2c1O [Compound 6, γ-mangostin]	more than 50%	
	COc1cc2c(=O)c3c(O)c(O)c(O)cc3oc2cc1O [Compound 17, caloxanthone E]	more than 50%	
	CC(C)=CCc1c(O)c(O)c(C/C=C(\C)CCCC(C)(C)O)c2oc3ccc(O)cc3c(=O)c12 [Compound 16, pruniflonone A]		weak efficacy
	isocudraniaxanthone B [Compound 3]	more than 50%	
good inhibition	Oc1cc(O)c2c(c1)O[C@H](c1ccc(O)c(O)c1)[C@H](O)C2 [Compound 21, epicatechin]		
	O=c1c2cc(O)c(O)cc2oc2cc(O)c([C@@H]3O[C@H](CO)[C@@H](O)[C@H](O)[C@H]3O)c(O)c12 [Compound 18, mangiferin]	more than 50%	
weak effect	O=C(c1ccccc1)c1cc(O)c(O)c(OC2OC(CO)C(O)C(O)C2O)c1 (stereo not drawn) [Compound 19, pruniflonone B]		weak effect
reduced the efficacy	CC(C)=CCc1c(O)c(O)cc2c(=O)c3c(O)cc(O)cc3oc12 [Compound 1, cochinchinone F]		

Source: paper PMC9952466, “Characterization of Antioxidant and α-Glucosidase Inhibitory Compounds of Cratoxylum formosum ssp. pruniflorum and Optimization of Extraction Condition” (Antioxidants, 2023)
